Common to all, as to assay: NCI anticancer screen, dose series, 48 h
In assay [1] the test system is SNB-75.
Assay [2] concerns IGROV-1.
In assay [3] the test system is UACC-62.
Assay [4] has as its system HCT-116.
The subject of assay [5] is NCI-H23.
The subject of assay [6] is ACHN.
The subject of assay [7] is NCI-H460.
In assay [8] the test system is KM12.
The subject of assay [9] is EKVX.
The subject of assay [10] is NCI-H522.
In assay [11] the test system is TK-10.
The subject of assay [12] is HCT-15.
Assay [13] concerns SW-620.
Assay [14] deals with Malme-3M.
The test system of assay [15] is SK-MEL-5.
Assay [16] has as its system HL-60.
The subject of assay [17] is OVCAR-4.

The values below come from ChEMBL document CHEMBL1201862, “PubChem BioAssay data set” (2004).

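Cells were grown in 96-well plates and exposed to each compound for 48 hours at five concentrations; endpoints were interpolated linearly between bracketing concentrations, or set to the highest concentration if not reached. The concentration for 50% growth inhibition is given as GI50.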 Calls of active or inactive are those of the source. Cut-off read from the data, not from the text of the source: active = GI50 up to about 1.1 µM and inactive = higher.

As for `CC1=CCCC2C(C=O)(C1)CC(C)C2(CO)CC/C(=C/CO)CO` (configuration not stated), the GI50 was 37.8 µM (inactive) in assay [1]; > 100 µM (inactive) in assay [2]; > 100 µM (inactive) in assay [3]; 69.5 µM (inactive) in assay [4]; 90.6 µM (inactive) in assay [5]; > 100 µM (inactive) in [6]. Also, the GI50 in [7] was > 100 µM (inactive); in [8] it was > 100 µM (inactive); in [9], > 100 µM (inactive); in assay [10], 38.4 µM (inactive); in assay [11], > 100 µM (inactive); in assay [12], above 100 µM. For the same molecule, the GI50 in [13], in assay [14] and in [15] was > 100 µM (inactive) each time.
As for `COc1cc2c(cc1OC)C1c3ccccc3C(C#N)(C2)N(C(=O)c2ccccc2)C1O` (configuration not stated), the GI50 in [1] was 45.7 µM (inactive); in [2] it was 47.5 µM (inactive); in [3], 43.7 µM (inactive); in assay [4], > 100 µM (inactive); in [5], 84.5 µM (inactive); in assay [6], 50 µM (inactive). Also, the GI50 in assay [7] was 59.7 µM (inactive); in assay [8], 46.5 µM (inactive); in assay [9] it was 75 µM (inactive); in [10] it was 21.3 µM (inactive); in assay [11], 93.1 µM (inactive); in [16], 42.3 µM (inactive). Moreover, the GI50 is 55.8 µM in assay [12], 65 µM (inactive) in assay [13], > 100 µM (inactive) in [14] and 30.7 µM (inactive) in assay [15].
In the case of `CC1(Cl)CC(C)(/C=C/Cl)C(Cl)CC1Cl` (configuration not stated), the GI50 is 18.8 µM (inactive) in assay [1]; 12.9 µM (inactive) in [2]; 17.7 µM (inactive) in assay [17]; 16.1 µM (inactive) in assay [3]; 10.1 µM (inactive) in [4]; 19.8 µM (inactive) in [5]. Also, the GI50 is 14.7 µM (inactive) in assay [6]; 14.2 µM (inactive) in assay [7]; 16.6 µM (inactive) in assay [8]; 12.1 µM (inactive) in assay [9]; 16.7 µM (inactive) in assay [10]; 26.1 µM (inactive) in assay [11]. Further, the GI50 in assay [12] was 14.1 µM; in assay [13] it was 15.7 µM (inactive); in assay [14], 14.9 µM (inactive); in assay [15], 14 µM (inactive).
With `O=C1C2C(C(=O)N1c1ccccc1)C1([N+](=O)[O-])C=C3c4ccccc4N(C(=O)c4ccccc4)C32C2C(=O)N(c3ccccc3)C(=O)C21` (configuration not stated), the GI50 in assay [1], in [2], in assay [3], in assay [4], in assay [5] and in assay [6] was > 100 µM (inactive) in each case. In addition, the GI50 in assay [7] was > 100 µM (inactive); in assay [8] it was > 100 µM (inactive); in [10], > 100 µM (inactive); in [11], > 100 µM (inactive); in [16], > 100 µM (inactive); in [12], above 100 µM. Besides, the GI50 in assay [13] and in assay [14] was > 100 µM (inactive) each time.
Turning to `COc1ccc(C2ON(c3cccc(C)n3)CC=C2C)cc1` (configuration not stated), the GI50 is 29 µM (inactive) in [1]; 60.8 µM (inactive) in assay [2]; 62.5 µM (inactive) in [17]; 40.7 µM (inactive) in assay [3]; 27.6 µM (inactive) in assay [5]; 56 µM (inactive) in [6]. Besides, the GI50 in [7] was 67.9 µM (inactive); in [8], 36.3 µM (inactive); in assay [9], > 100 µM (inactive); in assay [10] it was 19.2 µM (inactive); in assay [16] it was 18 µM (inactive); in assay [12], 26.9 µM. The figures for the GI50 in [13], in assay [14] and in assay [15] were 30.6 µM (inactive), 36.6 µM (inactive) and 17.6 µM (inactive), respectively.
As for `Fc1cccc(/C=N/C23CC4CC(CC(C4)C2)C3)c1`, the GI50 in assay [1], in assay [2], in assay [17], in assay [3], in assay [4] and in [5] was > 100 µM (inactive) in each case. Also, the GI50 in assay [6], in [7], in [8], in [9], in [10] and in assay [11] was > 100 µM (inactive) in each case. In addition, the values for the GI50 in assay [16], in assay [12] and in assay [14] were > 100 µM (inactive), above 100 µM and > 100 µM (inactive), respectively.
`COC(=O)C1=C(O)c2cc3c(cc2[C@H](c2cc(OC)c(OC)c(OC)c2)C1)OCO3`: the GI50 in assay [1] is > 100 µM (inactive); in assay [2], 24.4 µM (inactive); in assay [17], 32.5 µM (inactive); in assay [3], 5.74 µM (inactive); in assay [4], 55.3 µM (inactive); in assay [5], 41.7 µM (inactive). Besides, the GI50 in assay [6] is 23.1 µM (inactive); in assay [7], 34 µM (inactive); in [8], 23.3 µM (inactive); in [11], 34.4 µM (inactive); in [16], 14.3 µM (inactive); in assay [12], 25.2 µM. Moreover, the GI50 in assay [13] is 61.4 µM (inactive); in assay [14], 38.1 µM (inactive); in assay [15], 20.8 µM (inactive).
In the case of `CC1CCCC(C(O)CC2CC(=O)N(c3ccccc3)C(=O)C2)C1=O` (configuration not stated), the GI50 in assay [1], in [2], in assay [17], in [3], in assay [4] and in assay [5] was > 100 µM (inactive) throughout. Moreover, the GI50 in assay [6], in assay [7], in assay [8], in [9], in assay [10] and in assay [11] was > 100 µM (inactive) each time. In addition, the GI50 in assay [16], in assay [13] and in assay [14] was > 100 µM (inactive) each time.
On to `Cc1c(C(=O)/C=C/c2ccccc2)[n+]([O-])c2ccccc2[n+]1[O-]`, for which the GI50 is 23.6 µM (inactive) in assay [1]; 17.5 µM (inactive) in [2]; 15 µM (inactive) in assay [17]; 15.1 µM (inactive) in assay [3]; 15.8 µM (inactive) in assay [4]; 15.7 µM (inactive) in assay [5]. The GI50 in assay [6] was 17.7 µM (inactive); in [7], 17.6 µM (inactive); in [8] it was 15.9 µM (inactive); in [9], 14.9 µM (inactive); in [10] it was 6.62 µM (inactive); in assay [11] it was 26.2 µM (inactive). In addition, the GI50 is 13.9 µM (inactive) in assay [16], 14.8 µM (inactive) in assay [13] and 17.7 µM (inactive) in assay [14].
Take `C\C=C/C=C/C=C/C(=O)O`: the GI50 in assay [1], in [2], in assay [17], in [3], in [4] and in assay [5] was > 100 µM (inactive) each time. The GI50 in assay [6] is > 100 µM (inactive); in assay [7], > 100 µM (inactive); in assay [8] it was > 100 µM (inactive); in assay [9] it was 67.3 µM (inactive); in assay [10], > 100 µM (inactive); in [16], > 100 µM (inactive). Also, the GI50 in [12] is above 100 µM; in assay [13], > 100 µM (inactive); in assay [14] it was > 100 µM (inactive); in [15] it was > 100 µM (inactive).
